Assay results: publication PMC5517430, “2,3,7,8-Tetrachlorodibenzo-p-dioxin (TCDD)-elicited effects on bile acid homeostasis: Alterations in biosynthesis, enterohepatic circulation, and microbial metabolism” (Scientific Reports, 2017)

System: hepatic gene expression
Test: Hepatic RNA-Seq differential gene expression (fold change, P1(t), ED50, BMD, BMDL)
Format: in vivo, mouse
Method: Frozen ileal epithelium scrapings and liver samples were homogenized in TRIzol (Ambion, Waltham, MA) using a Mixer Mill 300 tissue homogenizer (Retsch, Germany) and total RNA was isolated as previously described. RNA was quantified using a Nano-drop spectrophotometer (Thermo Scientific, Wilmington, DE) at 260 nm, and purity was assessed using the A260/A280 ratio and the Caliper LabChip GX (Perkin Elmer, Waltham, MA).
Dose-dependent gene expression was examined using RNA-Seq performed at the MSU Research Technology Support Facility (RTSF) Genomics Core (rtsf.natsci.msu.edu/genomics). Ileal libraries from three independent biological replicates (n = 3) were prepared using the Ovation Mouse RNA-Seq System 1–16 sample preparation kit (NuGen, San Carlos, CA), with an additional DNase step. Libraries were quantified and sequenced as previously described, using a read depth of ~30 M per sample[33], [67]. Quality was determined using FASTQC v0.11.3 and adaptor sequences were removed using Trimmomatic v0.33. Reads were mapped to the mouse reference genome (GRCm38 release 81) using Bowtie2 v2.2.6 and TopHat2 v2.1.0. Alignments were converted to SAM format using SAMTools v1.2.0. For TCDD-mediated differential gene expression, fold changes were calculated relative to vehicle controls. Hepatic RNA-Seq analysis was previously published. Genes were considered differentially expressed if |fold change| ≥ 1.5 and statistical P1(t) value ≥ 0.8 at one or more doses. RNA-Seq datasets for the ileal epithelium and liver were deposited in the Gene Expression Omnibus (GEO; accession number GSE89430 and GSE87519, respectively). The RNA-Seq results (fold changes, P1(t) values) for each gene discussed in the manuscript have been compiled in Supplementary Table S1. […] Estimation of benchmark dose (BMD) and BMD lower confidence limit (BMDL) was performed using BMDExpress[69] as previously described, and has been included in Supplementary Table S1.

[1] = liver, 0.3 µg/kg TCDD, relative to vehicle control
[2] = liver, 1 µg/kg TCDD, relative to vehicle control
[3] = liver, 3 µg/kg TCDD, relative to vehicle control
[4] = liver, 10 µg/kg TCDD, relative to vehicle control
[5] = liver, 30 µg/kg TCDD, relative to vehicle control
[6] = male mice, 30 µg/kg TCDD every 4 d for 28 d
[7] = male mice, TCDD every 4 d for 28 d

Clc1cc2c(cc1Cl)Oc1cc(Cl)c(Cl)cc1O2 [TCDD, 2,3,7,8-tetrachlorodibenzo-p-dioxin]
Slco1b2 (OATP1B2) FC_0.3 [1]: 1.08 | Slco2b1 (OATP2B1) FC_0.3 [1]: 0.92 | Soat1 FC_0.3 [1]: 0.85 | Soat2 FC_0.3 [1]: 1.22 | Sqle FC_0.3 [1]: 2.08 | Srebf2 FC_0.3 [1]: 1.06 | Sult2a8 FC_0.3 [1]: 0.81 | Tm7sf2 FC_0.3 [1]: 1.05 | Slc6a6 (TAUT) FC_1 [2]: 1.28 | Slc10a1 (NTCP or LBAT) FC_1 [2]: 1.21 | Slc27a5 FC_1 [2]: 0.86 | Slco1a1 (OATP1A1) FC_1 [2]: 1.33 | Slco1a4 (OATP1A4) FC_1 [2]: 0.45 | Slco1b2 (OATP1B2) FC_1 [2]: 1.13 | Slco2b1 (OATP2B1) FC_1 [2]: 1.01 | Soat1 FC_1 [2]: 0.53 | Soat2 FC_1 [2]: 1.23 | Sqle FC_1 [2]: 1.92 | Srebf2 FC_1 [2]: 0.99 | Sult2a8 FC_1 [2]: 0.89 | Tm7sf2 FC_1 [2]: 0.89 | Slc6a6 (TAUT) FC_3 [3]: 1.14 | Slc10a1 (NTCP or LBAT) FC_3 [3]: 1.09 | Slc27a5 FC_3 [3]: 0.81 | Slco1a1 (OATP1A1) FC_3 [3]: 1.24 | Slco1a4 (OATP1A4) FC_3 [3]: 0.40 | Slco1b2 (OATP1B2) FC_3 [3]: 0.92 | Slco2b1 (OATP2B1) FC_3 [3]: 0.90 | Soat1 FC_3 [3]: 0.77 | Soat2 FC_3 [3]: 1.08 | Sqle FC_3 [3]: 1.74 | Srebf2 FC_3 [3]: 0.93 | Sult2a8 FC_3 [3]: 0.65 | Tm7sf2 FC_3 [3]: 1.24 | Slc6a6 (TAUT) FC_10 [4]: 1.16 | Slc10a1 (NTCP or LBAT) FC_10 [4]: 0.56 | Slc27a5 FC_10 [4]: 0.48 | Slco1a1 (OATP1A1) FC_10 [4]: 0.0276 | Slco1a4 (OATP1A4) FC_10 [4]: 0.46 | Slco1b2 (OATP1B2) FC_10 [4]: 0.65 | Slco2b1 (OATP2B1) FC_10 [4]: 0.40 | Soat1 FC_10 [4]: 1.16 | Soat2 FC_10 [4]: 0.80 | Sqle FC_10 [4]: 2.07 | Srebf2 FC_10 [4]: 0.85 | Sult2a8 FC_10 [4]: 0.12 | Tm7sf2 FC_10 [4]: 0.97 | Slc6a6 (TAUT) FC_30 [5]: 1.84 | Slc10a1 (NTCP or LBAT) FC_30 [5]: 0.056 | Slc27a5 FC_30 [5]: 0.06 | Slco1a1 (OATP1A1) FC_30 [5]: 0.000843 | Slco1a4 (OATP1A4) FC_30 [5]: 0.40 | Slco1b2 (OATP1B2) FC_30 [5]: 0.13 | Slco2b1 (OATP2B1) FC_30 [5]: 0.08 | Soat1 FC_30 [5]: 3.59 | Soat2 FC_30 [5]: 0.51 | Sqle FC_30 [5]: 0.23 | Srebf2 FC_30 [5]: 0.37 | Sult2a8 FC_30 [5]: 0.00374 | Tm7sf2 FC_30 [5]: 0.0549 | Fgfr4 hepatic expression, fold repression [6]: 4.7 fold | Hmgcr hepatic expression [6]: no significant induction | Klb hepatic expression, fold repression [6]: 8.1 fold | Srebf2 hepatic expression, fold repression [6]: 2.7 fold | Hmgcr hepatic expression, max fold induction (male mice, 0.3–10 µg/kg TCDD every 4 d for 28 d): 3.4 fold | Abcb11 hepatic expression, fold repression [7]: 4.7 fold | Abcc2 hepatic expression [7]: unchanged | Akr1c6 hepatic expression, fold repression [7]: 22.1 fold | Akr1d1 hepatic expression, fold repression [7]: 16.3 fold | Amacr hepatic expression, fold repression [7]: 3.3 fold | Baat hepatic expression, fold repression [7]: 12.0 fold | Cdo1 hepatic expression, fold repression [7]: 2.7 fold | Ch25h hepatic expression, fold induction [7]: 6.1 fold | Csad hepatic expression, fold repression [7]: 4.5 fold | Cyp3a11 hepatic expression, fold repression [7]: 4.9 fold | Cyp3a13 hepatic expression, fold repression [7]: 17.0 fold | Cyp3a16 hepatic expression, fold repression [7]: 5.2 fold | Cyp3a25 hepatic expression, fold repression [7]: 6.0 fold | Cyp3a44 hepatic expression, fold repression [7]: 3.0 fold | Cyp3a57 hepatic expression, fold repression [7]: 2.4 fold | Cyp3a59 hepatic expression, fold repression [7]: 4.4 fold | Cyp7a1 hepatic expression, fold repression [7]: 39.7 fold | Cyp7b1 hepatic expression, fold repression [7]: 7.6 fold | Cyp8b1 hepatic expression, fold repression [7]: 4.4 fold | Cyp27a1 hepatic expression, fold repression [7]: 2.4 fold | Cyp46a1 hepatic expression, fold repression [7]: 2.1 fold | Hsd3b7 hepatic expression, fold repression [7]: 2.5 fold | Nr0b2 hepatic expression, fold repression [7]: 22.2 fold | Nr1h4 hepatic expression, fold repression [7]: 3.2 fold | Scp2 hepatic expression, fold repression [7]: 3.4 fold | Slc10a1 hepatic expression, fold repression [7]: 17.9 fold | Slc27a5 hepatic expression, fold repression [7]: 16.0 fold | Slco1a1 hepatic expression, fold repression [7]: 1186.3 fold | Slco1a4 hepatic expression, fold repression [7]: 2.5 fold | Slco1b2 hepatic expression, fold repression [7]: 7.9 fold | Slco2b1 hepatic expression, fold repression [7]: 12.9 fold | Sult2a8 hepatic expression, fold repression [7]: 267.5 fold
